Reference: patent US8658648B2, “Modified chloroquines with single ring moiety or fused ring moiety” (DesignMedix, Inc., priority 2008, dated 2014)
Where two headings read alike, the source gives them in different places.

Key:
[1] = tested on: 7G8 (CQ^R) P. falciparum strain; test: In vitro fluorescence (Sybr Green I) assay for IC50 against 7G8 strain; assay type: cell-based; conditions: Plasmodium falciparum, read-out: IC50-7G8
Source text: (§1) This method employs fluorescent detection of the level of parasitemia in cultured red blood cells and can be automated for high-throughput screening of antimalarial RCQs. This exemplary method allows the inhibitory agent (such as a MCQ) to be in contact with the parasite for an entire developmental cycle without purine starvation, which is in contrast to the traditional ^3H-hypoxanthine method (Desjardins et al. 1979. Antimicrob. Agents Chemother. 16(6):710-718, which is incorporated herein by reference in its entirety). Briefly, to perform the Smilkstein et al. method, an initial parasitemia of approximately 0.2% is attained by adding uninfected red blood cells (RBCs) to a stock culture of Plasmodium-infected RBCs. […] After a period of incubation (such as about 72 hours), a sufficient amount (e.g., 100 μL) of a fluorescent DNA binding dye-detergent mixture (e.g., Sybr Green I dye-detergent mixture) to lyse cells and bind to DNA is added to the reactions. Because uninfected RBCs have no DNA, only parasite DNA (in infected RBCs) is available for binding to the fluorescent dye (e.g., Sybr Green I). Samples are then incubated in the dark for a period of time (e.g., one hour), followed by measurement of levels of fluorescence. For Sybr Green 1, excitation and emission wavelength are 485 and 530 nm, respectively. Fluorescence readings, which represent the amount of parasite DNA in the sample, can be plotted against the Log [drug] and fit to a curve by nonlinear regression to obtain the IC50 value for the tested compound.
(§2) An in vitro fluorescence assay for determining IC50 of antimalarial drugs was performed as previously described by Smilkstein et al. (2004. Antimicrob. Agents Chemother. 48(5):1803-1806). This procedure can be automated for high-throughput screening of the antimalarial activities of RCQs described herein. This method also allows the tested agent (e.g., a MCQ) to be in contact with the parasite for an entire developmental cycle without purine starvation (which occurs with the commonly used ^3H-hypoxanthine method; see, e.g., Desjardins et al. 1979. Antimicrob. Agents Chemother. 16, (6):710-7188).
(§3) Briefly, an initial parasitemia of approximately 0.2% was attained by addition of uninfected red blood cells to a stock culture of cells infected with Dd2 (CQ^R), 7G8 (CQ^R), or D6 (CQ^S) P. falciparum strains. A 10 mM solution of a test compound (in DMSO) was prepared. The test compound (at a final concentration from 10^−11 to 10^−4 M) and infected red blood cells (at a final concentration of 2% (v/v)) were mixed in 100 μL samples in individual wells of a 96-well plate. Each sample was prepared in triplicate. A triplicate set of reactions containing CQ (instead of the test compound) was included as a control. After a 72 hour incubation period, Sybr Green I dye-detergent mixture (100 μL) was added to each reaction. The samples were further incubated for an hour in the dark, and then placed in a 96-well fluorescence plate reader (Gemini-EM, […]) and analyzed with excitation and emission wavelength bands at 485 and 530 nm, respectively. Fluorescence readings were plotted against the Log [drug], and curve fitting performed by nonlinear regression to find the IC50 value.

[2] = tested on: Dd2 (CQ^R) P. falciparum strain; test: In vitro fluorescence (Sybr Green I) assay for IC50 against Dd2 strain; assay type: cell-based; conditions: Plasmodium falciparum, read-out: IC50-Dd2
Source text: as §1, §2, §3

[3] = tested on: D6 (CQ^S) P. falciparum strain; test: In vitro fluorescence (Sybr Green I) assay for IC50 against D6 strain; assay type: cell-based; conditions: Plasmodium falciparum, read-out: IC50-D6
Source text: as §1, §2, §3

[4] = tested on: mitogen-induced marine spleen lymphocytes; assay type: cell-based; conditions: LC50; mouse spleen lymphocytes, 72 hours incubation, then resazurin 24 hours
Experimental: Mouse spleen lymphocytes were isolated from C57B1/6J mice by teasing tissues on a metallic sieve screen. […] Two hundred (200) μl isolated cells were then seeded in separate wells of a 96-well flat-bottom tissue culture plate at a density of 2×10^5 cells per well. […] After 72 hours incubation in a humidified atmosphere at 37° C. and 5% CO2, a solution of resazurin PBS was added to a final concentration 10 μM, and the plates were returned to the incubator for another 24 hours. Resazurin is a substrate which changes color in response to metabolic activity (such as that found in living cells). […] LC50 values were determined from plots of florescence versus drug concentration using non-linear regression by Prism software.

[5] = tested on: P. falciparum strain FCR3; conditions: cited from earlier work; also: key: S = sensitive; R = resistant; S/R = intermediate level of resistance
[6] = tested on: P. falciparum strain W2; conditions: cited from earlier work; also: key: S = sensitive; R = resistant; S/R = intermediate level of resistance
[7] = tested on: P. falciparum strain D6; conditions: cited from earlier work; also: key: S = sensitive; R = resistant; S/R = intermediate level of resistance
[8] = tested on: P. falciparum strain Dd2; conditions: cited from earlier work; also: key: S = sensitive; R = resistant; S/R = intermediate level of resistance
[9] = tested on: P. falciparum strain TM91C235; conditions: cited from earlier work; also: key: S = sensitive; R = resistant; S/R = intermediate level of resistance
[10] = Erythrocyte, 7G8 (CQ^R) strain in infected red blood cells, 72 hour incubation
[11] = Erythrocyte, Dd2 (CQ^R) strain in infected red blood cells, 72 hour incubation
[12] = Erythrocyte, D6 (CQ^S) strain in infected red blood cells, 72 hour incubation

IC50 [1, 10]	IC50 [2, 11]	IC50 [3, 12]	SMILES	IC50 ([2]; DD2, Erythrocyte, 72 h)	IC50 ([3]; D6, Erythrocyte, 72 h)	further results
12.2 nM	3.9 nM	4.57 nM	Clc1ccc2c(NCCN3CCN(c4ccccn4)CC3)ccnc2c1 [7-chloro-N-(2-(4-(pyridin-2-yl)piperazin-1-yl)ethyl)quinolin-4-amine]			
			O=[N+]([O-])c1ccc(N2CCN(CCCNc3ccnc4cc(Cl)ccc34)CC2)c([N+](=O)[O-])c1 [7-chloro-N-(3-(4-(2,4-dinitrophenyl)piperazin-1-yl)propyl)quinolin-4-amine]	0.47 nM	0.3 nM	IC50 ([1]; 7G8, Erythrocyte, 72 h): 0.35 nM
			Clc1ccc2c(NCCCN3CCN(c4ccc(Cl)c(Cl)c4)CC3)ccnc2c1 [7-chloro-N-(3-(4-(3,4-dichlorophenyl)piperazin-1-yl)propyl)quinolin-4-amine]	0.9 nM	0.1 nM	IC50 ([1]; 7G8, Erythrocyte, 72 h): 0.28 nM
0.2 nM	0.17 nM	0.005 nM	FC(F)(F)c1ccc(N2CCN(CCCNc3ccnc4cc(Cl)ccc34)CC2)cc1 [7-chloro-N-(3-(4-(4-(trifluoromethyl)phenyl)piperazin-1-yl)propyl)quinolin-4-amine]			
			Clc1ccc(N2CCN(CCCNc3ccnc4cc(Cl)ccc34)CC2)cc1 [7-chloro-N-(3-(4-(4-chlorophenyl)piperazin-1-yl)propyl)quinolin-4-amine]	0.33 nM	0.005 nM	IC50 ([1]; 7G8, Erythrocyte, 72 h): 0.09 nM
0.3 nM	0.8 nM	0.14 nM	Fc1ccc(N2CCN(CCCNc3ccnc4cc(Cl)ccc34)CC2)cc1 [7-chloro-N-(3-(4-(4-fluorophenyl)piperazin-1-yl)propyl)quinolin-4-amine]			
0.3 nM	0.48 nM	0.1 nM	COc1ccc(N2CCN(CCCNc3ccnc4cc(Cl)ccc34)CC2)cc1 [7-chloro-N-(3-(4-(4-methoxyphenyl)piperazin-1-yl)propyl)quinolin-4-amine]			
			O=[N+]([O-])c1ccc(N2CCN(CCCNc3ccnc4cc(Cl)ccc34)CC2)cc1 [7-chloro-N-(3-(4-(4-nitrophenyl)piperazin-1-yl)propyl)quinolin-4-amine]	1.14 nM	0.8 nM	IC50 ([1]; 7G8, Erythrocyte, 72 h): 0.4 nM
1 nM	0.83 nM	0.5 nM	FC(F)(F)c1ccc(N2CCN(CCCNc3ccnc4cc(Cl)ccc34)CC2)nc1 [7-chloro-N-(3-(4-(5-(trifluoromethyl)pyridin-2-yl)piperazin-1-yl)propyl)quinolin-4-amine]			
0.45 nM	0.48 nM	0.26 nM	O=[N+]([O-])c1ccc(N2CCN(CCCNc3ccnc4cc(Cl)ccc34)CC2)nc1 [7-chloro-N-(3-(4-(5-nitropyridin-2-yl)piperazin-1-yl)propyl)quinolin-4-amine]			
2.9 nM	1.1 nM	2.07 nM	Clc1ccc2c(NCCCN3CCN(c4cccnc4)CC3)ccnc2c1 [7-chloro-N-(3-(4-(pyridin-3-yl)piperazin-1-yl)propyl)quinolin-4-amine]			
6.8 nM	2 nM	2.07 nM	Clc1ccc2c(NCCCN3CCN(c4ccncc4)CC3)ccnc2c1 [7-chloro-N-(3-(4-(pyridin-4-yl)piperazin-1-yl)propyl)quinolin-4-amine]			
3.3 nM	1 nM	1.3 nM	Clc1ccc2c(NCCCN3CCN(c4ncccn4)CC3)ccnc2c1 [7-chloro-N-(3-(4-(pyrimidin-2-yl)piperazin-1-yl)propyl)quinolin-4-amine]			
0.3 nM	0.86 nM	0.11 nM	Cc1ccc(N2CCN(CCCNc3ccnc4cc(Cl)ccc34)CC2)cc1 [7-chloro-N-(3-(4-p-tolylpiperazin-1-yl)propyl)quinolin-4-amine]			
			Clc1ccc2c(NCCCN3CCN(c4ccccc4)CC3)ccnc2c1 [7-chloro-N-(3-(4-phenylpiperazin-1-yl)propyl)quinolin-4-amine]	< 2.5 nM	< 2.5 nM	Cytotoxicity [4]: 6400 nM
			CC1(C)N=C(N)N=C(N)N1c1ccc(Cl)cc1 [Cycloguanil]			Drug susceptibility of P. falciparum strain FCR3 [5]: S; Drug susceptibility of P. falciparum strain W2 [6]: R; Drug susceptibility of P. falciparum strain D6 [7]: S; Drug susceptibility of P. falciparum strain Dd2 [8]: S
			OC(c1cc(C(F)(F)F)nc2c(C(F)(F)F)cccc12)C1CCCCN1 (centres unmarked) [Mefloquine]			Drug susceptibility of P. falciparum strain TM91C235 [9]: R; Drug susceptibility of P. falciparum strain FCR3 [5]: S; Drug susceptibility of P. falciparum strain W2 [6]: S; Drug susceptibility of P. falciparum strain D6 [7]: S/R; Drug susceptibility of P. falciparum strain Dd2 [8]: R
			Nc1ccc(N2CCN(CCCNc3ccnc4cc(Cl)ccc34)CC2)cc1 [N-(3-(4-(4-aminophenyl)piperazin-1-yl)propyl)-7-chloroquinolin-4-amine]	3.16 nM	1.8 nM	IC50 ([1]; 7G8, Erythrocyte, 72 h): 3.2 nM
			Clc1ccc2c(NCCCN3CCN(c4ccccc4-c4ccccc4)CC3)ccnc2c1 [N-(3-(4-(biphenyl-2-yl)piperazin-1-yl)propyl)-7-chloroquinolin-4-amine]	2.6 nM	1.2 nM	Cytotoxicity [4]: 1700 nM
			Clc1ccc2c(NCCCN3CCN(c4cccc(-c5ccccc5)c4)CC3)ccnc2c1 [N-(3-(4-(biphenyl-3-yl)piperazin-1-yl)propyl)-7-chloroquinolin-4-amine]	1.8 nM	0.94 nM	Cytotoxicity [4]: 2100 nM
			Clc1ccc2c(NCCCN3CCN(c4ccc(-c5ccccc5)cc4)CC3)ccnc2c1 [N-(3-(4-(biphenyl-4-yl)piperazin-1-yl)propyl)-7-chloroquinolin-4-amine]	0.36 nM	0.1 nM	IC50 ([1]; 7G8, Erythrocyte, 72 h): 0.13 nM; Cytotoxicity [4]: 2200 nM
			C=C[C@H]1C[N@@]2CC[C@H]1C[C@H]2[C@H](O)c1ccnc2ccc(OC)cc12 [Quinine]			Drug susceptibility of P. falciparum strain TM91C235 [9]: R; Drug susceptibility of P. falciparum strain FCR3 [5]: S; Drug susceptibility of P. falciparum strain W2 [6]: R; Drug susceptibility of P. falciparum strain D6 [7]: S; Drug susceptibility of P. falciparum strain Dd2 [8]: R
			COc1ncnc(NS(=O)(=O)c2ccc(N)cc2)c1OC [Sulfadoxine]			Drug susceptibility of P. falciparum strain TM91C235 [9]: R; Drug susceptibility of P. falciparum strain FCR3 [5]: S; Drug susceptibility of P. falciparum strain W2 [6]: R; Drug susceptibility of P. falciparum strain D6 [7]: S; Drug susceptibility of P. falciparum strain Dd2 [8]: S

SMILES	IC50 [1, 10]	IC50 [2, 11]	IC50 [3, 12]	IC50 ([2]; DD2, Erythrocyte, 72 h)	IC50 ([3]; D6, Erythrocyte, 72 h)	further results
O=[N+]([O-])c1cnc(N2CCN(CCCNc3ccnc4cc(Cl)ccc34)CC2)c([N+](=O)[O-])c1 [7-chloro-N-(3-(4-(3,5-dinitropyridin-2-yl)piperazin-1-yl)propyl)quinolin-4-amine]	0.9 nM	0.85 nM	0.45 nM			
